According to PMC8286840, “Identifying SARS-CoV-2 antiviral compounds by screening for small molecule inhibitors of Nsp3 papain-like protease” (Biochemical Journal, 2021):
Where a name gives a salt, the structure may show the parent alone. Read-outs that look alike come from different tables or passages of the source.

What was measured:
[1] = target: T1, SARS-CoV-2 PLpro (nsp3 1564–1878) (Severe acute respiratory syndrome coronavirus 2, UniProt P0DTD1); test: biochemical; design: FRET-quenched peptide (Pro3) cleavage by PLpro, 10 min pre-incubation, slope over 20 min, normalised to no-compound control; conditions: high concentration screen, read-out: % of control remaining
[2] = target: T1, SARS-CoV-2 PLpro (nsp3 1564–1878); test: biochemical; design: FRET-quenched peptide (Pro3) cleavage by PLpro, 10 min pre-incubation, slope over 20 min, normalised to no-compound control; conditions: low concentration screen, read-out: % of control remaining

## Nc1ccn(C[C@@H](CO)OCP(=O)(O)O)c(=O)n1 [Cidofovir (Vistide)]
[1]; Well no.=5251
  remaining activity at 3.75 µM: 101%
[2]; Well no.=5251
  remaining activity at 1.25 µM: 98.3%

## CC1(COc2ccc(CC3SC(=O)NC3=O)cc2)CCCCC1 (stereo not drawn) [Ciglitazone]
[1]; Well no.=4236
  remaining activity at 3.75 µM: 107%
[2]; Well no.=4236
  remaining activity at 1.25 µM: 110%

## CC1(COc2ccc(CC3SC(=O)NC3=O)cc2)CCCCC1 (stereo not drawn) [Ciglitizone]
[1]; Well no.=222
  remaining activity at 3.75 µM: 97.7%
[2]; Well no.=222
  remaining activity at 1.25 µM: 99%

## CC1(C)C[C@@H]1C(=O)N/C(=C\CCCCSC[C@H](N)C(=O)O)C(=O)O [Cilastatin]
[1]; Well no.=2198
  remaining activity at 3.75 µM: 95.6%
[2]; Well no.=2198
  remaining activity at 1.25 µM: 94.3%

## CC(C)[C@H]1C(=O)N[C@@H](CCCNC(=N)N)C(=O)NCC(=O)N[C@@H](CC(=O)O)C(=O)N[C@H](Cc2ccccc2)C(=O)N1C [Cilengitide (EMD 121974, NSC 707544)]
[1]; Well no.=5174
  remaining activity at 3.75 µM: 96.2%
[2]; Well no.=5174
  remaining activity at 1.25 µM: 94.8%

## COCCOC(=O)C1=C(C)NC(C)=C(C(=O)OC/C=C/c2ccccc2)C1c1cccc([N+](=O)[O-])c1 (stereo not drawn) [Cilnidipine]
[1]; Well no.=1759
  remaining activity at 3.75 µM: 98.3%
[2]; Well no.=1759
  remaining activity at 1.25 µM: 98.8%

## CN(C(=O)CCCOc1ccc2[nH]c(=O)ccc2c1)C1CCCCC1 [Cilostamide]
[1]; Well no.=234
  remaining activity at 3.75 µM: 94.4%
[1]; Well no.=2142
  remaining activity at 3.75 µM: 98.8%
[2]; Well no.=234
  remaining activity at 1.25 µM: 91.5%
[2]; Well no.=2142
  remaining activity at 1.25 µM: 95.9%

## O=C1CCc2cc(OCCCCc3nnnn3C3CCCCC3)ccc2N1 [Cilostazol]
[1]; Well no.=281
  remaining activity at 3.75 µM: 95.3%
[2]; Well no.=281
  remaining activity at 1.25 µM: 94.5%

## CC(C)NCC(O)c1ccc(N)c(C#N)c1 (stereo not drawn) [Cimaterol]
[1]; Well no.=1779
  remaining activity at 3.75 µM: 99.7%
[2]; Well no.=1779
  remaining activity at 1.25 µM: 102%

## CN/C(=N\CCSCc1nc[nH]c1C)NC#N [Cimetidine]
[1]; Well no.=272
  remaining activity at 3.75 µM: 93.4%
[1]; Well no.=1875
  remaining activity at 3.75 µM: 99.3%
[1]; Well no.=7328
  remaining activity at 3.75 µM: 97.6%
[2]; Well no.=272
  remaining activity at 1.25 µM: 88%
[2]; Well no.=1875
  remaining activity at 1.25 µM: 96.3%
[2]; Well no.=7328
  remaining activity at 1.25 µM: 94.5%

## C[C@@H](NCCCc1cccc(C(F)(F)F)c1)c1cccc2ccccc12 [Cinacalcet (hydrochloride)]
[1]; Well no.=7426
  remaining activity at 3.75 µM: 104%
[2]; Well no.=7426
  remaining activity at 1.25 µM: 104%

## C[C@@H](NCCCc1cccc(C(F)(F)F)c1)c1cccc2ccccc12 [Cinacalcet]
[1]; Well no.=7389
  remaining activity at 3.75 µM: 82.2%
[2]; Well no.=7389
  remaining activity at 1.25 µM: 96.2%

## CN(C)CCCSc1ccccc1NC(=O)/C=C/c1ccccc1 [Cinanserin]
[1]; Well no.=2094
  remaining activity at 3.75 µM: 101%
[2]; Well no.=2094
  remaining activity at 1.25 µM: 101%

## C=C[C@H]1CN2CC[C@H]1C[C@@H]2[C@@H](O)c1ccnc2ccccc12 [Cinchonine]
[1]; Well no.=7012
  remaining activity at 3.75 µM: 93.6%
[2]; Well no.=7012
  remaining activity at 1.25 µM: 97.3%

## COc1cc(/C=C/C(=O)N2CCN(CC(=O)N3CCCC3)CC2)cc(OC)c1OC [Cinepazide maleate]
[1]; Well no.=5271
  remaining activity at 3.75 µM: 96.6%
[2]; Well no.=5271
  remaining activity at 1.25 µM: 95.9%

## Nc1c(C(=O)O)c2nc3c(C(=O)O)cccc3oc-2cc1=O [Cinnabarinic Acid]
[1]; Well no.=5384
  remaining activity at 3.75 µM: 96.7%
[2]; Well no.=5384
  remaining activity at 1.25 µM: 91.8%

## O=C(O)/C=C/c1ccccc1 [Cinnamic acid]
[1]; Well no.=7011
  remaining activity at 3.75 µM: 105%
[2]; Well no.=7011
  remaining activity at 1.25 µM: 104%

## CCn1nc(C(=O)O)c(=O)c2cc3c(cc21)OCO3 [Cinoxacin]
[1]; Well no.=332
  remaining activity at 3.75 µM: 96.9%
[2]; Well no.=332
  remaining activity at 1.25 µM: 98.1%

## CC(C)(C[C@H]1CN(S(=O)(=O)c2cccc(C(F)(F)F)c2)c2cc(-c3cc(F)cc(OC(F)F)c3)ccc2O1)C(=O)O [Cintirorgon]
[1]; Well no.=8171
  remaining activity at 3.75 µM: 98.6%
[2]; Well no.=8171
  remaining activity at 1.25 µM: 99.9%

## CC(C)(Oc1ccc(C2CC2(Cl)Cl)cc1)C(=O)O (stereo not drawn) [Ciprofibrate]
[1]; Well no.=41
  remaining activity at 3.75 µM: 93.5%
[2]; Well no.=41
  remaining activity at 1.25 µM: 92.6%

## O=C(O)c1cn(C2CC2)c2cc(N3CCNCC3)c(F)cc2c1=O [Ciprofloxacin]
[1]; Well no.=2263
  remaining activity at 3.75 µM: 100%
[2]; Well no.=2263
  remaining activity at 1.25 µM: 99%

## O=C(c1ccc(OCCCc2c[nH]cn2)cc1)C1CC1 [Ciproxifan (maleate)]
[1]; Well no.=7089
  remaining activity at 3.75 µM: 105%
[2]; Well no.=7089
  remaining activity at 1.25 µM: 103%

## O=C(c1ccc(OCCCc2c[nH]cn2)cc1)C1CC1 [Ciproxifan]
[1]; Well no.=5316
  remaining activity at 3.75 µM: 97%
[2]; Well no.=5316
  remaining activity at 1.25 µM: 101%

## c1ccc(C2CC2)c(OCC2=NCCN2)c1 [Cirazoline hydrochloride]
[1]; Well no.=537
  remaining activity at 3.75 µM: 103%
[2]; Well no.=537
  remaining activity at 1.25 µM: 106%

## CN(C)CCCC1(c2ccc(F)cc2)OCc2cc(C#N)ccc21 (stereo not drawn) [Citalopram hydrobromide]
[1]; Well no.=90
  remaining activity at 3.75 µM: 100%
[2]; Well no.=90
  remaining activity at 1.25 µM: 95%

## CN(C)CCCC1(c2ccc(F)cc2)OCc2cc(C#N)ccc21 (stereo not drawn) [Citalopram]
[1]; Well no.=2265
  remaining activity at 3.75 µM: 103%
[2]; Well no.=2265
  remaining activity at 1.25 µM: 97.4%

## C[N+](C)(C)CCOP(=O)(O)OP(=O)([O-])OC[C@H]1O[C@@H](n2ccc(N)nc2=O)[C@H](O)[C@@H]1O [Citicoline sodium salt]
[1]; Well no.=7726
  remaining activity at 3.75 µM: 110%
[2]; Well no.=7726
  remaining activity at 1.25 µM: 104%

## C[N+](C)(C)CCOP(=O)(O)OP(=O)([O-])OC[C@H]1O[C@@H](n2ccc(N)nc2=O)[C@H](O)[C@@H]1O [Citicoline sodium]
[1]; Well no.=375
  remaining activity at 3.75 µM: 101%
[2]; Well no.=375
  remaining activity at 1.25 µM: 91.9%

## C[N+](C)(C)CCOP(=O)(O)OP(=O)([O-])OC[C@H]1O[C@@H](n2ccc(N)nc2=O)[C@H](O)[C@@H]1O [Citicoline]
[1]; Well no.=8931
  remaining activity at 3.75 µM: 88.7%
[2]; Well no.=8931
  remaining activity at 1.25 µM: 89%

## C/C(=C/C(=O)O)C(=O)O [Citraconic acid]
[1]; Well no.=6261
  remaining activity at 3.75 µM: 89.6%
[2]; Well no.=6261
  remaining activity at 1.25 µM: 102%

## COc1cc(=O)oc(/C=C/C=C/C=C/C(C)=C/[C@]2(C)O[C@H](C)[C@](C)(O)[C@H]2O)c1C [Citreoviridin]
[1]; Well no.=3391
  remaining activity at 3.75 µM: 96.6%
[2]; Well no.=3391
  remaining activity at 1.25 µM: 92.8%

## O=C(O)CC(O)(CC(=O)O)C(=O)O [Citric acid]
[1]; Well no.=6195
  remaining activity at 3.75 µM: 103%
[1]; Well no.=6298
  remaining activity at 3.75 µM: 104%
[2]; Well no.=6195
  remaining activity at 1.25 µM: 104%
[2]; Well no.=6298
  remaining activity at 1.25 µM: 103%

## CC1=C2C(=CO[C@H](C)[C@H]2C)C(O)=C(C(=O)O)C1=O [Citrinin]
[1]; Well no.=3171
  remaining activity at 3.75 µM: 107%
[2]; Well no.=3171
  remaining activity at 1.25 µM: 101%

## Nc1nc(Cl)nc2c1ncn2[C@H]1C[C@H](O)[C@@H](CO)O1 [Cladribine]
[1]; Well no.=5101
  remaining activity at 3.75 µM: 108%
[1]; Well no.=8050
  remaining activity at 3.75 µM: 100%
[2]; Well no.=5101
  remaining activity at 1.25 µM: 107%
[2]; Well no.=8050
  remaining activity at 1.25 µM: 99%
